Experimental data as given in patent US20230250096A1, “SUBSTITUTED PHENYL-1H-PYRROLO[2,3-c] PYRIDINE DERIVATIVES” (Janssen Pharmaceutica NV, priority 2021, published 2023).

Columns and labels:
KO-52 cells = assay: Proliferation assay (spheroid confluence, 8 days), KO-52 control cell line; type: cell-based, human; settings: Homo sapiens, read-out: spheroid assay_KO-52 IC50
Experimental: (§1) The anti-proliferative effect of menin/MLL protein/protein interaction inhibitor test compounds was assessed in human leukemia cell lines. The cell line MOLM14 harbors a MLL translocation and expresses the MLL fusion protein MLL-AF9, respectively, as well as the wildtype protein from the second allele. OCI-AML3 cells that carry the NPM1c gene mutation were also tested. […] KO-52 was used as a control cell line containing two MLL (KMT2A) wildtype alleles in order to exclude compounds that display general cytotoxic effects.
(§2) MOLM14 cells were cultured in RPMI-1640 (Sigma Aldrich) supplemented with 10% heat-inactivated fetal bovine serum (HyClone), 2 mM L-glutamine (Sigma Aldrich) and 50 μg/ml gentamycin (Gibco). KO-52 and OCI-AML3 cell lines were propagated in alpha-MEM (Sigma Aldrich) supplemented with 20% heat-inactivated fetal bovine serum (HyClone), 2 mM L-glutamine (Sigma Aldrich) and 50 μg/ml gentamycin (Gibco).
(§3) In order to assess the anti-proliferative effects, 200 MOLM14 cells, 200 OCI-AML3 cells or 300 KO-52 cells were seeded in 200 μl media per well in 96-well round bottom, ultra-low attachment plates (Costar, catalogue number 7007). Cell seeding numbers were chosen based on growth curves to ensure linear growth throughout the experiment. Test compounds were added at different concentrations and the DMSO content was normalized to 0.3%. Cells were incubated for 8 days at 37° C. and 5% CO2. Spheroid like growth was measured in real-time by live-cell imaging (IncuCyteZOOM, Essenbio, 4×objective) acquiring images at day 8. Confluence (%) as a measure of spheroid size was determined using an integrated analysis tool.
(§4) In order to determine the effect of the test compounds over time, the confluence in each well as a measure of spheroid size, was calculated. Confluence of the highest dose of a reference compound was used as baseline for the LC (Low control) and the confluence of DMSO treated cells was used as 0% cytotoxicity (High Control, HC).
(§5) Absolute IC50 values were calculated as percent change in confluence as follows:
(§6) LC=Low Control: cells treated with e.g. 1 μM of the cytotoxic agent staurosporin, or e.g. cells treated with a high concentration of an alternative reference compound
(§7) HC=High Control: Mean confluence (%) (DMSO treated cells)
(§8) % Effect=100−(100*(Sample−LC)/(HC−LC))
(§9) GraphPad Prism (version 7.00) was used to calculate the IC50. Dose-response equation was used for the plot of % Effect vs Log10 compound concentration with a variable slope and fixing the maximum to 100% and the minimum to 0%.

OCI-AML3 cells = assay: Proliferation assay (spheroid confluence, 8 days), OCI-AML3; type: cell-based, human; settings: Homo sapiens, OCI-AML-3, OCI-AML3; read-out: spheroid assay_OCI-AML3 IC50
Experimental: as §1, §2, §3, §4, §5, §6, §7, §8, §9

[1] = target: T1, menin/MLL (terbium chelate-labeled menin, FITC-MBM1 peptide) (Homo sapiens, UniProt O00255, T541A); assay: Menin/MLL homogenous time-resolved fluorescence (HTRF) assay; type: binding; settings: 30 min incubation
T1 construct: Menin (a.a 1-610-6xhis tag, 2.3 mg/mL in 20 mM Hepes)
T1 sequence (O00255 with tags, fused parts or gaps T541A): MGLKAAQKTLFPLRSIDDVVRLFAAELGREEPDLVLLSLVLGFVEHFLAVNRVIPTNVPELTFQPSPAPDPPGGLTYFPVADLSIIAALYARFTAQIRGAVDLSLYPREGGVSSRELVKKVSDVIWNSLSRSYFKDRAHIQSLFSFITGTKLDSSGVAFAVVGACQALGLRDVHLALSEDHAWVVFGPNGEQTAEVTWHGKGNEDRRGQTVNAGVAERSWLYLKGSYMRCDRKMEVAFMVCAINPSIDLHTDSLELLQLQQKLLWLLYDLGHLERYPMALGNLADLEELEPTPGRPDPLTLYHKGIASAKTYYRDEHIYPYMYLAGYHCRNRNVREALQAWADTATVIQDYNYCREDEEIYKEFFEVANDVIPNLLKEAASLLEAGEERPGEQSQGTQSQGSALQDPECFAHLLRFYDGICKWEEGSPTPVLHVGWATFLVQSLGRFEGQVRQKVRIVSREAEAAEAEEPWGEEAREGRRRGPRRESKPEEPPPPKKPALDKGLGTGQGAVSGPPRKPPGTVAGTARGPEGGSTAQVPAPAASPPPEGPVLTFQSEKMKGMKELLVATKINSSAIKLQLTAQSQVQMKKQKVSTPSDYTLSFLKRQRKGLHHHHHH
Summary of the method: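 Terbium-labeled menin (a.a. 1-610, His-tagged; […]) pre-incubated 30 min with compound, then 75 nM FITC-MBM1 peptide added for 15 min at ambient temperature in Tris pH 7.5 buffer, 0.5% DMSO. HTRF 520/490 nm ratio read; IC50 from 11-point four-fold titrations, typically from 10 μM.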

[2] = Dynamic vapor sorption (DVS) moisture sorption analysis; type: physicochemical
Experimental: Dynamic Vapor Sorption (DVS)
The moisture sorption analysis (DVS) was performed using a ProUmid GmbH & Co. KG Vsorp Enhanced dynamic vapor sorption apparatus. The moisture profile was evaluated by monitoring vapor adsorption/desorption over the range of 0 to 90% relative humidity at 25° C. The sample weight equilibrium criteria were set at <0.01% change in 45 min with minimum and maximum time of acclimation at 50 min and 120 min, respectively. The moisture profile consisted of 2 cycles of vapor adsorption/desorption.
In the humidity range of 20-90% RH, the crystalline form adsorbs and desorbs moisture slowly and reversibly up to 2.5% by mass on average. Based on DVS, the crystalline HCl salt Form, at equilibrium, can contain around 3 equivalents of water (8.5-9.5% total moisture mass) at common ambient RH of 40% to 75%.

[3] = common ambient RH of 40% to 75%

Structure (SMILES)	IC50 (KO-52 cells) [nM]	IC50 (OCI-AML3 cells) [nM]	IC50 [1] [nM]	hygroscopicity of the crystalline form (DVS change in mass plot) ([2]; 0 to 90% relative humidity, 25° C., 2 cycles of adsorption/desorption)	solid-state form change after the DVS test (XRPD compared with the starting material) ([2]; XRPD of the fraction obtained after DVS)	dehydration behaviour at low relative humidity ([2]; below 10% RH, to complete dehydrated state at 0% RH)	total moisture mass at equilibrium [2, 3]	water content at equilibrium [2, 3]	moisture adsorbed and desorbed (slowly and reversibly), on average ([2]; humidity range of 20-90% RH, 25° C.)
COCC(=O)N1CCC(C(C)N2CCC(Cc3cn(-c4ccc(F)cc4C(=O)N(C)C(C)C)c4cncc(C)c34)C2)CC1 (single isomer, unassigned) [Compound 117a]	1600	7	0.088	–	–	–	–	–	–
CC(=O)N1CCC(CN2CC[C@@H](Cc3cn(-c4ccc(F)cc4C(=O)N(C)C(C)C)c4cncc(C)c34)C2)CC1.Cl [Compound 51a]	–	–	0.024	hygroscopic	No indication of a solid-state form change was observed	dehydrates rapidly	8.5-9.5%	around 3 equivalents of water	up to 2.5 % by mass
CNC(=O)N1CCC(CN2CC[C@H](Cc3cn(-c4ccc(F)cc4C(=O)N(C)C(C)C)c4cncc(C)c34)C2)CC1 (single isomer, unassigned) [Compound 101]	3100	8	0.041	–	–	–	–	–	–
